Measured values published in patent US20220062240A1, “METHODS OF TREATING CANCER USING A CLK INHIBITOR” (BioSplice Therapeutics, Inc., priority 2018, published 2022).
Read-outs that look alike come from different tables or passages of the source.

Tests used:
[1] = system: liver cancer (3 cell lines); assay: CellTiter-Glo Viability Assay, liver cancer; assay type: cell-based; conditions: Homo sapiens, inhibition of cancer cell proliferation
[2] = system: prostate cancer (5 cell lines); assay: CellTiter-Glo Viability Assay, prostate cancer; assay type: cell-based; conditions: Homo sapiens
[3] = target: T1, CLK2 (Homo sapiens, UniProt P49760); assay: CLK2 kinase activity assay (Z-lyte, Ser/Thr 6 peptide); assay type: biochemical; conditions: recombinant CLK2 kinase, ATP 60 μM; read-out: EC50
T1 construct: purchased Thermo Fisher (Life Technologies), Z'-LYTE Kinase Assay Kits
T1 sequence (P49760 whole entry): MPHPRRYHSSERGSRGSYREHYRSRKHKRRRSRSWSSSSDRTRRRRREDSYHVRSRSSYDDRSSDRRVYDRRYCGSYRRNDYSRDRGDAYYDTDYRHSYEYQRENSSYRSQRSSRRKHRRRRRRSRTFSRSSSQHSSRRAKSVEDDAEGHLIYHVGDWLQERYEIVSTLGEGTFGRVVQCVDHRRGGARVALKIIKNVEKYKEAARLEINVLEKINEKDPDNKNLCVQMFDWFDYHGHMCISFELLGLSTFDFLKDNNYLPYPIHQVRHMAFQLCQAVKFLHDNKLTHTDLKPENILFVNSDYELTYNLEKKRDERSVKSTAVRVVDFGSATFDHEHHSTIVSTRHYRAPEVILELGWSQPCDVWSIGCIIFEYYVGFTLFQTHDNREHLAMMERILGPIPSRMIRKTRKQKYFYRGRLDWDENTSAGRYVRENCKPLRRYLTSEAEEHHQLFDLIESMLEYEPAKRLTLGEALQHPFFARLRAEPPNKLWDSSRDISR
Procedure: All reactions were performed in duplicate.

[4] = system: colorectal cancer (6 cell lines); assay: CellTiter-Glo Viability Assay, colorectal cancer; assay type: cell-based; conditions: Homo sapiens, inhibition of cancer cell proliferation
[5] = system: lung cancer (4 cell lines); assay: CellTiter-Glo Viability Assay, lung cancer; assay type: cell-based; conditions: Homo sapiens, inhibition of cancer cell proliferation
[6] = system: pancreatic cancer (8 cell lines); assay: CellTiter-Glo Viability Assay, pancreatic cancer; assay type: cell-based; conditions: Homo sapiens, inhibition of cancer cell proliferation
[7] = system: all 50 cell lines; assay: CellTiter-Glo Viability Assay, average across all cell lines; assay type: cell-based; conditions: Homo sapiens; across all 50 cell lines; read-out: average EC50 for inhibition of cancer cell proliferation
Summary of the method: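 Luminescent ATP read-out (CellTiter-Glo) after a 4-day compound exposure at 37° C served as the viability measure. Cells were seeded at 300-3,000/well, compound wells run in duplicate against DMSO controls, and EC50 values came from fitted dose-response curves.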

[8] = system: haematopoietic & lymphoid tumors (13 cell lines); assay: CellTiter-Glo Viability Assay, haematopoietic & lymphoid tumors; assay type: cell-based; conditions: Homo sapiens, inhibition of cancer cell proliferation
[9] = system: CAMA1; assay: CellTiter-Glo Viability Assay, breast cancer; assay type: cell-based; conditions: Homo sapiens, CAMA-1, 96 h; CAMA1, breast cancer, four days; read-out: EC50
[10] = system: ZR-75-1; assay: CellTiter-Glo Viability Assay, breast cancer; assay type: cell-based; conditions: Homo sapiens, 96 h; ZR-75-1, breast cancer, four days; read-out: EC50
[11] = system: MDA-MB-231-Luc; assay: CellTiter-Glo Viability Assay, breast cancer; assay type: cell-based; conditions: Homo sapiens, 96 h; MDA-MB-231-Luc, breast cancer, four days; read-out: EC50
[12] = system: DU4475; assay: CellTiter-Glo Viability Assay, breast cancer; assay type: cell-based; conditions: Homo sapiens, DU-4475, 96 h; DU4475, breast cancer, four days; read-out: EC50
[13] = system: MCF7; assay: CellTiter-Glo Viability Assay, breast cancer; assay type: cell-based; conditions: Homo sapiens, 96 h; MCF7, breast cancer, four days; read-out: EC50
[14] = system: BT-549; assay: CellTiter-Glo Viability Assay, breast cancer; assay type: cell-based; conditions: Homo sapiens, 96 h; BT-549, breast cancer, four days; read-out: EC50
[15] = system: T47D; assay: CellTiter-Glo Viability Assay, breast cancer; assay type: cell-based; conditions: Homo sapiens, 96 h, breast cancer, four days, read-out: EC50
[16] = system: HCC1599; assay: CellTiter-Glo Viability Assay, breast cancer; assay type: cell-based; conditions: Homo sapiens, 96 h; HCC1599, breast cancer, four days; read-out: EC50
[17] = system: ovarian cancer (4 cell lines); assay: CellTiter-Glo Viability Assay, ovarian cancer; assay type: cell-based; conditions: Homo sapiens, inhibition of cancer cell proliferation
[18] = SNU-398, SNU398 cell line, read-out: Liver cancer, EC50 SNU398
[19] = HEPG2 cell line, read-out: Liver cancer, EC50 HEPG2
[20] = PLC/PRF/5 cell line, read-out: Liver cancer, EC50 PLC/PRF/5
[21] = DU-145, read-out: Prostate cancer EC50 Du-145
[22] = PC-3, PC3 cell line, inhibition of cancer cell proliferation, read-out: Prostate cancer EC50 PC3
[23] = 22Rv1 cell line, inhibition of cancer cell proliferation, read-out: Prostate cancer EC50 22Rv1
[24] = LNCap clone FGC cell line, inhibition of cancer cell proliferation, read-out: Prostate cancer EC50 LNCap clone FGC
[25] = VCaP (Sigma) cell line, inhibition of cancer cell proliferation, read-out: Prostate cancer EC50 VCaP (Sigma)
[26] = HCT-116, HCT116 cell line, read-out: Colorectal cancer, EC50 (μM) HCT116
[27] = HT-29, HT29 cell line, read-out: Colorectal cancer, EC50 (μM) HT29
[28] = SW-620, SW620 cell line, read-out: Colorectal cancer, EC50 (μM) SW620
[29] = DLD-1 cell line, read-out: Colorectal cancer, EC50 (μM) DLD-1
[30] = SW48 cell line, read-out: Colorectal cancer, EC50 (μM) SW48
[31] = SW480 cell line, read-out: Colorectal cancer, EC50 (μM) SW480
[32] = A-427, A427 cell line, read-out: Lung cancer, EC50 (μM) A427
[33] = HCC78, HCC-78 cell line, read-out: Lung cancer, EC50 (μM) HCC-78
[34] = NCI-H460 cell line, read-out: Lung cancer, EC50 (μM) NCI-H460
[35] = NCI-H522 cell line, read-out: Lung cancer, EC50 (μM) NCI-H522
[36] = BXPC-3, BxPC3 cell line, read-out: Pancreatic cancer, EC50 BxPC3
[37] = CAPAN-1, Capan1 cell line, read-out: Pancreatic cancer, EC50 Capan1
[38] = Capan-2, Capan2 cell line, read-out: Pancreatic cancer, EC50 Capan2
[39] = MIA PaCa-2 cell line, read-out: Pancreatic cancer, EC50 MIA PaCa-2
[40] = PANC 05.04 cell line, read-out: Pancreatic cancer, EC50 PANC 05.04
[41] = PANC-1 cell line, read-out: Pancreatic cancer, EC50 PANC-1
[42] = UPAFII cell line, read-out: Pancreatic cancer, EC50 UPAFII
[43] = DND41, DND-41 cell line, read-out: Haematopoietic & Lymphoid tumors, EC50 (μM) DND-41
[44] = MV4-11, MV-4-11 cell line, read-out: Haematopoietic & Lymphoid tumors, EC50 (μM) MV-4-11
[45] = Rec1, REC-1 cell line, read-out: Haematopoietic & Lymphoid tumors, EC50 (μM) REC-1
[46] = SU-DHL-4, SUDHL4 cell line, read-out: Haematopoietic & Lymphoid tumors, EC50 (μM) SUDHL4
[47] = HL-60 cell line, read-out: Haematopoietic & Lymphoid tumors, EC50 (μM) HL-60
[48] = JM1 cell line, read-out: Haematopoietic & Lymphoid tumors, EC50 (μM) JM1
[49] = JURKAT, Clone E6-1 cell line, read-out: Haematopoietic & Lymphoid tumors, EC50 (μM) JURKAT, Clone E6-1
[50] = JeKo-1 cell line, read-out: Haematopoietic & Lymphoid tumors, EC50 (μM) JeKo-1
[51] = KASUMI-1 cell line, read-out: Haematopoietic & Lymphoid tumors, EC50 (μM) KASUMI-1
[52] = Loucy cell line, read-out: Haematopoietic & Lymphoid tumors, EC50 (μM) Loucy
[53] = MOLT-4 cell line, read-out: Haematopoietic & Lymphoid tumors, EC50 (μM) MOLT-4
[54] = TF-1 cell line, read-out: Haematopoietic & Lymphoid tumors, EC50 (μM) TF-1
[55] = TOLEDO cell line, read-out: Haematopoietic & Lymphoid tumors, EC50 (μM) TOLEDO
[56] = PA-1, PA1 cell line, read-out: Ovarian cancer, EC50 (μM) PA1
[57] = TOV112D, TOV-112D cell line, read-out: Ovarian cancer, EC50 (μM) TOV-112D
[58] = OV-90 cell line, read-out: Ovarian cancer, EC50 (μM) OV-90
[59] = OVCAR-3 cell line, read-out: Ovarian cancer, EC50 (μM) OVCAR-3

CN1CCCn2cc(nn2)-c2nccc3[nH]c(nc23)-c2n[nH]c3ccc(cc23)-c2cncc(c2)C1 [Compound 57]
EC50 [1, 18]: 3.38 µM
EC50 [1, 19]: > 10 µM
EC50 [1, 20]: > 10 µM
EC50 [2, 21]: > 10 µM
EC50 [2, 22]: 8.34 µM
EC50 [2, 23]: 6.98 µM
EC50 [2, 24]: > 10 µM
EC50 [2, 25]: > 10 µM
EC50 [3]: 0.0028 µM
EC50 [4, 26]: > 10 µM
EC50 [4, 27]: > 10 µM
EC50 [4, 28]: 7.7 µM
EC50 [4, 29]: > 10 µM
EC50 [4, 30]: 2.03 µM
EC50 [4, 31]: > 10 µM
EC50 [5, 32]: 7.79 µM
EC50 [5, 33]: > 10 µM
EC50 [5, 34]: > 10 µM
EC50 [5, 35]: 7.58 µM
EC50 [6, 36]: 7.25 µM
EC50 [6, 37]: > 10 µM
EC50 [6, 38]: > 10 µM
EC50 [6, 39]: 6.72 µM
EC50 [6, 40]: > 10 µM
EC50 [6, 41]: > 10 µM
EC50 [6, 42]: > 10 µM
EC50 [7]: 7.29 µM
EC50 [8, 43]: 2.38 µM
EC50 [8, 44]: 0.188 µM
EC50 [8, 45]: 6.85 µM
EC50 [8, 46]: 0.953 µM
EC50 [8, 47]: 3.13 µM
EC50 [8, 48]: 1.68 µM
EC50 [8, 49]: > 10 µM
EC50 [8, 50]: 0.917 µM
EC50 [8, 51]: 9.46 µM
EC50 [8, 52]: 1.71 µM
EC50 [8, 53]: > 10 µM
EC50 [8, 54]: 4.32 µM
EC50 [8, 55]: 1.85 µM
EC50 [9]: > 10 µM
EC50 [10]: > 10 µM
EC50 [11]: > 10 µM
EC50 [12]: 1.66 µM
EC50 [13]: > 10 µM
EC50 [14]: 5.81 µM
EC50 [15]: > 10 µM
EC50 [16]: 2.2 µM
EC50 [17, 56]: > 10 µM
EC50 [17, 57]: > 10 µM
EC50 [17, 58]: > 10 µM
EC50 [17, 59]: 3.89 µM

CN1CCC2(CC1)CN(c1cc(C(=O)Nc3cc4cc(-c5cnn(C)c5CO)ccc4cn3)ccn1)C2 [Compound 76]
EC50 [1, 18]: 0.12 µM
EC50 [1, 19]: 0.654 µM
EC50 [1, 20]: 2.55 µM
EC50 [2, 21]: 0.941 µM
EC50 [2, 22]: 0.546 µM
EC50 [2, 23]: 0.397 µM
EC50 [2, 24]: 1.38 µM
EC50 [2, 25]: 1.7 µM
EC50 [3]: 0.0026 µM
EC50 [4, 26]: 0.455 µM
EC50 [4, 27]: 1.41 µM
EC50 [4, 28]: 0.241 µM
EC50 [4, 29]: 1.53 µM
EC50 [4, 30]: 0.16 µM
EC50 [4, 31]: 0.384 µM
EC50 [5, 32]: 0.481 µM
EC50 [5, 33]: 1.07 µM
EC50 [5, 34]: 2.05 µM
EC50 [5, 35]: 0.246 µM
EC50 [6, 36]: 2.07 µM
EC50 [6, 37]: 0.81 µM
EC50 [6, 38]: 1.19 µM
EC50 [6, 39]: 0.219 µM
EC50 [6, 40]: 1.06 µM
EC50 [6, 41]: 1.66 µM
EC50 [6, 42]: 0.635 µM
EC50 [7]: 0.922 µM
EC50 [8, 43]: 0.547 µM
EC50 [8, 44]: 0.123 µM
EC50 [8, 45]: 1.77 µM
EC50 [8, 46]: 0.533 µM
EC50 [8, 47]: 1.63 µM
EC50 [8, 48]: 0.167 µM
EC50 [8, 49]: 1.33 µM
EC50 [8, 50]: 0.142 µM
EC50 [8, 51]: 0.547 µM
EC50 [8, 52]: 0.385 µM
EC50 [8, 53]: 0.734 µM
EC50 [8, 54]: 2.39 µM
EC50 [8, 55]: 0.373 µM
EC50 [9]: 0.64 µM
EC50 [10]: 0.95 µM
EC50 [11]: 0.798 µM
EC50 [12]: 0.468 µM
EC50 [13]: 3.36 µM
EC50 [14]: 1.05 µM
EC50 [15]: 1.22 µM
EC50 [16]: 0.673 µM
EC50 [17, 56]: 0.725 µM
EC50 [17, 57]: 0.277 µM
EC50 [17, 58]: 1.07 µM
EC50 [17, 59]: 0.194 µM
